Activity calls are given as the source filed them. No cut-off for these calls is given here.

The target of one assay is D(1A) dopamine receptor (Rattus norvegicus, UniProt P18901). Description: In vitro binding affinity at D1 receptor by measuring its ability to displace [3H]SCH-23390 from Dopamine receptor D1 in rat striatum.
Assay [1] has as its target T1, 5-hydroxytryptamine receptor 1A (Homo sapiens) (UniProt P08908).
T1 sequence (whole entry): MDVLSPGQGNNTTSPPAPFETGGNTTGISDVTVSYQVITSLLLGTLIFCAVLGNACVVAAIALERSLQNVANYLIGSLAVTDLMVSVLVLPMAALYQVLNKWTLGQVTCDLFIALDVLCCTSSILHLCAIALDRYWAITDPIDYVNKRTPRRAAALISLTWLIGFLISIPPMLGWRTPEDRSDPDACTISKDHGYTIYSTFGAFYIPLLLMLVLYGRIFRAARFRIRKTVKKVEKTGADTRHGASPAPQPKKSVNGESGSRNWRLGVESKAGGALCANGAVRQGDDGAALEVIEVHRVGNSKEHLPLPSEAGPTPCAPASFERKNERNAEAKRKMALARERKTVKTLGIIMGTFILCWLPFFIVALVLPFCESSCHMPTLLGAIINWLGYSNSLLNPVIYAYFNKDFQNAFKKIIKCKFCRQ
Description: Percent inhibition of vasoactive intestinal polypeptide-induced (VIP-induced) cAMP formation in GH4ZD10 cells expressing 5-HT1A receptor at 50 uM relative to 5-HT. Format: functional, cell-based.

Assay [2] addresses T2, D(2) dopamine receptor (Homo sapiens, UniProt P14416). Description: In vitro binding affinity at human cloned Dopamine receptor D2A measured by ability to displace [3H]raclopride from D2A receptor expressed in mouse fibroblast (LtK-) cells. Format: cell-based.
The target of assay [3] is T3, 5-hydroxytryptamine receptor 1A (Rattus norvegicus, UniProt P19327).
T3 sequence (P19327 whole entry): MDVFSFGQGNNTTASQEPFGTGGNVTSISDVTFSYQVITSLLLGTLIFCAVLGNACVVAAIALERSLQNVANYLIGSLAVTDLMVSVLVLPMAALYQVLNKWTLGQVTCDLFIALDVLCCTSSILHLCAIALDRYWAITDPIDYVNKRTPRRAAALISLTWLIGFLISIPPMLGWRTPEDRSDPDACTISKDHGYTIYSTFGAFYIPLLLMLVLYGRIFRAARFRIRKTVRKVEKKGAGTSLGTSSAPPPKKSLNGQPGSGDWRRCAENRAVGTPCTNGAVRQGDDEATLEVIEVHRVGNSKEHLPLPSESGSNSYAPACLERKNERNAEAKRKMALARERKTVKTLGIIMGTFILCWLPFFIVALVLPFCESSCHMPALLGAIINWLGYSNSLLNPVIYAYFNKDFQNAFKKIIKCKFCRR
In words: In vitro binding affinity at 5-HT1A receptors assayed by displacement of [3H]8-OH-DPAT from 5-hydroxytryptamine 1A receptor in rat hippocampal membranes. Format: cell membranes, Hippocampus, Membrane.

For assay [4], the target named is 5-hydroxytryptamine receptor 2A (Rattus norvegicus, UniProt P14842). Description: In vitro binding affinity at 5-hydroxytryptamine 2A receptor by displacement of [3H]ketanserin from rat cortex.
In assay [5] the target is T4, 5-hydroxytryptamine receptor 1A (Rattus norvegicus) (UniProt P19327).
T4 sequence (whole entry): T3 sequence (P19327 whole entry)
Description: Percent of maximum response by 5-HT when tested for inhibition of vasoactive intestinal polypeptide-induced (VIP-induced) cAMP formation assessed in GH4ZD10 cells at 50 uM concentration; No effect. Type of assay: functional, cell-based.

The target of assay [6] is T3, 5-hydroxytryptamine receptor 1A. In words: In vitro binding affinity at 5-HT1A receptor by measuring its ability to displace [3H]-8-OH-DPAT from 5-hydroxytryptamine 1A receptor in rat hippocampal membranes+cortex. Format: cell membranes, Hippocampus.
The target is the same in assay [7]. In words: In vitro binding affinity at 5-HT1A receptor by measuring its ability to displace [3H]8-OH-DPAT from 5-hydroxytryptamine 1A receptor in rat hippocampal membranes + cortex. Format: cell membranes, Hippocampus.
Assay [8] addresses T4, 5-hydroxytryptamine receptor 1A (Rattus norvegicus). Description: Percent of maximum response by 5-HT when tested for inhibition of vasoactive intestinal polypeptide-induced (VIP-induced) cAMP formation assessed in GH4ZD10 cells at 10 uM concentration. Type of assay: functional, cell-based.
Assay [9] addresses T2, D(2) dopamine receptor. In words: In vitro binding affinity at human cloned Dopamine receptor D2A by measuring its ability to displace [3H]raclopride from D2A receptor expressed in mouse fibroblast (LtK-) cells. Type of assay: cell-based.

T2 sequence (P14416 whole entry): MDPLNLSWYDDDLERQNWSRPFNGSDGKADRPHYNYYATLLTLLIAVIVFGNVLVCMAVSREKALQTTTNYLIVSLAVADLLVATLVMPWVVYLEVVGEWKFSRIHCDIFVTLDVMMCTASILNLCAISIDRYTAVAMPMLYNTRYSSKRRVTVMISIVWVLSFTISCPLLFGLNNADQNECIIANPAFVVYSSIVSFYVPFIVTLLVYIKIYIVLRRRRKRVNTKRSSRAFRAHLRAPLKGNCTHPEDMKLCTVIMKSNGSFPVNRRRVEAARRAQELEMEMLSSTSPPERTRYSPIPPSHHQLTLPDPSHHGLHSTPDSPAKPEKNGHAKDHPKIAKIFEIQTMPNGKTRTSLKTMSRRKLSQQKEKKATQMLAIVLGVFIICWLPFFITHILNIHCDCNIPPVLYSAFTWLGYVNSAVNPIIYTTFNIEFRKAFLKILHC
Sequence of 5-hydroxytryptamine receptor 2A (P14842 whole entry): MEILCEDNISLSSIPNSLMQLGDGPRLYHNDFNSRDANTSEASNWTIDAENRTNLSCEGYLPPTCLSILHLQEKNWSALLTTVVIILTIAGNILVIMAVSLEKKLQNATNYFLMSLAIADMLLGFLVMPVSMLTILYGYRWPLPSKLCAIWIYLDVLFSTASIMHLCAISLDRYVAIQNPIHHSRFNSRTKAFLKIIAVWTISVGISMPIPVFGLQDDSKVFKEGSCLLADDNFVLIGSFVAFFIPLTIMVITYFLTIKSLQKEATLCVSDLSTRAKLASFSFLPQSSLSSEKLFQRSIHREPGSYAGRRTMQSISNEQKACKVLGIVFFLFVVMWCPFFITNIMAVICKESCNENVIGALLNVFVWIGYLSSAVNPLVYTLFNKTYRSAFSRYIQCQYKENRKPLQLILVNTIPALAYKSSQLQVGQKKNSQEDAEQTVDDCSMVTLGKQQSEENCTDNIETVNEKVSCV
Sequence of D(1A) dopamine receptor (P18901 whole entry): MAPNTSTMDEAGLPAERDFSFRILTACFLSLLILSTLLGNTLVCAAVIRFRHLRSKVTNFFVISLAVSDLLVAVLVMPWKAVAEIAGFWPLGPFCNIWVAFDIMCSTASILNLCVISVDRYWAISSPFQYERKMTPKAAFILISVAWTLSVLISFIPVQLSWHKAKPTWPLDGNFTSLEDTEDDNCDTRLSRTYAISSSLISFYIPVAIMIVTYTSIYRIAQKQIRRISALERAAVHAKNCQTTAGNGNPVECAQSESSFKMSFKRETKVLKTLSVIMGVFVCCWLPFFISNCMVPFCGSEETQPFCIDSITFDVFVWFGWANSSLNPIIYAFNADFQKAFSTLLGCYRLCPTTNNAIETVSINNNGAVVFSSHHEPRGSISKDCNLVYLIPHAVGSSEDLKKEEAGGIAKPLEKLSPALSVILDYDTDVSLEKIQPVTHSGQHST

`CCCN(C(C)C)[C@H]1COc2cccc(C(=O)NC(C)C)c2C1` [EBALZOTAN]: the Ki on D(1A) dopamine receptor is above 50000 nM; on D(2) dopamine receptor [2], above 50000 nM; in [3], 7.77 nM; in [4], above 10000 nM. In assay [1], this molecule yielded an Efficacy of 74%.

`CCCN(C1CCCC1)[C@H]1COc2cccc(C(=O)OC)c2C1` showed a Ki in assay [3] of 0.41 nM.

For the molecule `CC(C)NC(=O)c1cccc2c1C[C@@H](NC(C)C)CO2`, the inhibitory constant (Ki) on D(1A) dopamine receptor is above 1000 nM; on D(2) dopamine receptor [2], above 1000 nM; in assay [3], 4300 nM; in [4] it was above 10000 nM. For the same molecule, the Efficacy entry in assay [5] was “inactive”.

In turn, `CCCN(C(C)C)[C@H]1COc2cccc(C(C)=O)c2C1` gave a Ki in assay [3] of 0.3 nM.

`CCCN(CCCCN1C(=O)CC2(CCCC2)CC1=O)[C@H]1COc2cccc(C(=O)NC)c2C1` displayed an Efficacy in assay [1] of 62%. The molecule further registered a Ki in assay [3] of 0.34 nM.

Take `CCCN(C1CCCC1)[C@H]1COc2cccc(C(=O)NC)c2C1`: the Efficacy in [1] turned out to be 70%. The molecule further gave a Ki in [3] below 0.3 nM.

`CCCN(CC(C)C)[C@H]1COc2cccc(C(=O)NC)c2C1` registered an Efficacy in assay [1] of 96%. Also, the inhibition constant (Ki) is 2.37 nM in assay [3] and above 50000 nM in assay [4].

Consider `CCCN[C@H]1COc2cccc(C(N)=O)c2C1`, for which the Ki was above 1000 nM on D(1A) dopamine receptor, above 1000 nM at D(2) dopamine receptor [2], 98.4 nM in assay [3] and above 1000 nM in assay [4]. In addition, the Efficacy in [1] was found to be 42%.

For `CCCN(C(C)C)[C@H]1COc2cccc(C(=O)OC(C)C)c2C1`, the Ki in [6] stood at 18 nM.

`CCCN(CCC)[C@@H]1COc2cccc(C(=O)NC(C)C)c2C1` came in with an Efficacy in assay [1] of 95%. For the same molecule, the Ki in assay [7] was found to be 64 nM.

On to `CNC(=O)c1cccc2c1C[C@@H](NCCCCN1C(=O)CC3(CCCC3)CC1=O)CO2`, for which the Efficacy in assay [1] worked out at 61%. The molecule also gave a Ki in [3] of 525 nM.

`CCCN(C1CCCC1)[C@H]1COc2cccc(C(N)=O)c2C1`: the Ki on D(1A) dopamine receptor was above 4000 nM; on D(2) dopamine receptor [2], above 1000 nM; in [3], below 0.3 nM; in assay [4], above 1000 nM. In assay [8], this molecule returned an Efficacy of 80%.

`CCCN(C(C)C)[C@@H]1COc2cccc(C(=O)NC(C)C)c2C1`: the inhibitory constant (Ki) was above 50000 nM on D(1A) dopamine receptor, above 50000 nM on D(2) dopamine receptor [2] and above 10000 nM in [4]. In addition, the Efficacy entry in assay [5] is “inactive”.

Take `CNC(=O)c1cccc2c1C[C@H](N(CCCCN1C(=O)CC3(CCCC3)CC1=O)CC(C)C)CO2`: the Efficacy in [1] came out at 123%. The molecule further came in with an inhibition constant Ki in assay [3] of 2.48 nM.

The molecule `CCCN(C(C)C)[C@@H]1COc2cccc(OC)c2C1` came in with a Ki in assay [6] of 134 nM.

For the molecule `CCCN(CC(C)(C)C)[C@@H]1COc2cccc(C(=O)NC)c2C1`, in assay [8], the Efficacy came out at 91%. In assay [3], the affinity, expressed as Ki, was 3.96 nM.

On to `CCCN(CC(C)(C)C)[C@H]1COc2cccc(C(=O)NC)c2C1`, for which the Efficacy in assay [1] came out at 88%. This molecule had a Ki in [3] of 31 nM.

For `NC(=O)c1cccc2c1C[C@@H](N)CO2`, the Ki (on D(1A) dopamine receptor; at D(2) dopamine receptor [2]; in [4]) was above 1000 nM throughout. Also, the Efficacy entry in [5] is “inactive”.

Turning to `CCCN(C(C)C)[C@H]1COc2cccc(C(N)=O)c2C1`, the inhibition constant Ki at D(1A) dopamine receptor was above 1000 nM; at D(2) dopamine receptor [2], above 50000 nM; in assay [3] it was 0.48 nM; in [4] it was above 1000 nM. Further, in assay [1], the Efficacy amounted to 75%.

Molecule `CNC(=O)c1cccc2c1C[C@H](NCCCCN1C(=O)CC3(CCCC3)CC1=O)CO2` came in with an Efficacy in [1] of 82%. The Ki in assay [3] amounted to 24.3 nM.

Regarding `CC(C)N[C@H]1COc2cccc(C(N)=O)c2C1`, the Ki on D(1A) dopamine receptor is above 1000 nM; at D(2) dopamine receptor [2], above 1000 nM; in [3] it was 397 nM; in assay [4], above 1000 nM. Further, the Efficacy in assay [1] was determined as 20%.

`CCCN(C(C)C)[C@H]1COc2cccc(C(=O)OC)c2C1` showed an Efficacy in assay [1] of 128%. In addition, the Ki in assay [3] was 0.32 nM.

In assay [6], `CCCN(C(C)C)[C@H]1COc2cccc(OC)c2C1` came in with a Ki of 3.1 nM.

The molecule `CCCN(CCCCN1C(=O)CC2(CCCC2)CC1=O)[C@@H]1COc2cccc(C(=O)NC)c2C1` showed an Efficacy in assay [1] of 103%. In addition, the inhibition constant (Ki) in assay [3] was below 0.3 nM.

As for `CCN(C(C)C)[C@H]1COc2cccc(C(=O)NC(C)C)c2C1`, the inhibitory constant (Ki) was above 1000 nM on D(1A) dopamine receptor, above 1000 nM on D(2) dopamine receptor [2], 200 nM in assay [3] and above 1000 nM in assay [4]. Moreover, in assay [8], the Efficacy is 34%.

Regarding `CCCN(C(C)C)[C@@H]1COc2cccc(C(C)=O)c2C1`, the Efficacy in assay [1] was found to be 128%. Besides, the Ki was found to be 30100 nM at D(2) dopamine receptor [9] and 11.9 nM in assay [3].

As to `CCCN(CCC)[C@H]1COc2cccc(C(=O)NC(C)C)c2C1`, the inhibitory constant (Ki) is above 1000 nM on D(1A) dopamine receptor, above 1000 nM on D(2) dopamine receptor [2], 14 nM in assay [3] and above 1000 nM in assay [4]. This molecule also returned an Efficacy in assay [1] of 58%.

As to `CCCN(C1CCCC1)[C@@H]1COc2cccc(C(=O)NC)c2C1`, the Efficacy in assay [1] was determined as 110%. The same molecule returned a Ki in assay [3] of 18.5 nM.

(Values after ChEMBL document CHEMBL1133455, “Synthesis of novel 5-substituted 3-amino-3,4-dihydro-2H-1-benzopyran derivatives and their interactions with the 5-HT1A receptor” (J Med Chem, 2000).)
